Data published in patent US11851440B2, “Modulators of eukaryotic initiation factor 2B, compositions and methods” (Denali Therapeutics Inc., priority 2017, dated 2023).

The molecules below were run on ISR pathway (ATF4 translation) (assay: ATF4 Nano Luciferase reporter integrated stress response (ISR) assay in H4 ATF4-NLuc cells). Settings: Homo sapiens, H4 ATF4-NLuc (clone 17) cells; compound 30 minutes, then 50 um sodium arsenite for 6 hours; luminescence readout.

IC50 [nM] | Structure (SMILES)
9.2 | O=C(NC12CC(c3nnc([C@H]4C[C@@H](OC(F)(F)F)C4)o3)(C1)C2)C1CCc2cc(Cl)ccc2O1 (single isomer, unassigned) [Example 157, 6-chloro-N-(3-(5-(3-cis-(trifluoromethoxy)cyclobutyl)-1,3,4-oxadiazol-2-yl)bicyclo[1.1.1]pentan-1-yl)chroman-2-carboxamide]
9.2 | O=C(COc1ccc(Cl)cc1)NC12CC(c3nnc([C@H]4C[C@@H](OC(F)(F)F)C4)o3)(C1)C2 [Example 3, 2-(4-chlorophenoxy)-N-[3-[5-[cis-3-(trifluoromethoxy)cyclobutyl]-1,3,4-oxadiazol-2-yl]-1-bicyclo[1.1.1]pentanyl]acetamide]
2.5 | O=C(COc1ccc(Cl)c(F)c1)NC12CC(c3nnc([C@H]4C[C@@H](OC(F)(F)F)C4)o3)(C1)C2 [Example 6, 2-(4-chloro-3-fluoro-phenoxy)-N-[1-[5-[cis-3-(trifluoromethoxy)cyclobutyl]-1,3,4-oxadiazol-2-yl]-3-bicyclo[1.1.1]pentanyl]acetamide]

Same assay, conditions: Homo sapiens, read-out: Activity (IC50), H4 ATF4-NLuc (clone 17) cells; compound 30 minutes, then 50 um sodium arsenite for 6 hours; luminescence readout

IC50 [nM] | Structure (SMILES)
< 1000 | O=C(NC12CC(c3nnc([C@H]4C[C@@H](OC(F)(F)F)C4)o3)(C1)C2)c1ccn([C@H]2C[C@@H](OC(F)(F)F)C2)n1 (single isomer, unassigned) [Example 108, 1-[cis-3-(trifluoromethoxy)cyclobutyl]-N-[3-[5-[cis-3-(trifluoromethoxy)cyclobutyl]-1,3,4-oxadiazol-2-yl]-1-bicyclo[1.1.1]pentanyl]pyrazole-3-carboxamide]
< 1000 | C[C@H]1C[C@@H]1c1nnc(C23CC(NC(=O)COc4ccc(Cl)c(F)c4)(C2)C3)o1 (single isomer, unassigned) [Example 112, 2-(4-chloro-3-fluoro-phenoxy)-N-[1-[5-[2-methylcyclopropyl]-1,3,4-oxadiazol-2-yl]-3-bicyclo[1.1.1]pentanyl]acetamide]
< 1000 | O=C(NC12CC(c3nnc([C@H]4C[C@@H](OC(F)(F)F)C4)o3)(C1)C2)C1CCc2cc(Cl)ccc2O1 (single isomer, unassigned) [Example 157, 6-chloro-N-(3-(5-(3-cis-(trifluoromethoxy)cyclobutyl)-1,3,4-oxadiazol-2-yl)bicyclo[1.1.1]pentan-1-yl)chroman-2-carboxamide]
< 1000 | O=C(NC12CC(c3nnc([C@H]4C[C@@H](OC(F)(F)F)C4)o3)(C1)C2)C1CCc2cc(F)ccc2O1 (single isomer, unassigned) [Example 159]
< 1000 | O=C(COc1ccc(Cl)c(F)c1)NC12CC(N3C[C@H](C4CC(OC(F)(F)F)C4)OC3=O)(C1)C2 (single isomer, unassigned) [Example 206]
< 1000 | O=C(COc1ccc(Cl)c(F)c1)NC12CC(N3C[C@@H](C4CC(OC(F)(F)F)C4)OC3=O)(C1)C2 (single isomer, unassigned) [Example 208]
< 1000 | N#CC1CC([C@H]2CN(C34CC(NC(=O)COc5ccc(Cl)c(F)c5)(C3)C4)C(=O)O2)C1 (single isomer, unassigned) [Example 218]

More lines, now with the values behind:

Structure (SMILES) | IC50 [nM]
O=C(COc1ccc(Cl)c(F)c1)NC12CC(c3nnc(C4C[C@H]4COC(F)(F)F)o3)(C1)C2 (mixture of isomers) [Example 80, 2-(4-chloro-3-fluoro-phenoxy)-N-[3-[5-[2-trans-(trifluoromethoxymethyl)cyclopropyl]-1,3,4-oxadiazol-2-yl]-1-bicyclo[1.1.1]pentanyl]acetamide] | < 1000
C[C@H]1C[C@@H]1c1nnc(C23CC(NC(=O)COc4ccc(Cl)c(F)c4)(C2)C3)o1 (relative stereo) [Example 9, 2-(4-chloro-3-fluoro-phenoxy)-N-[1-[5-[(trans)-2-methylcyclopropyl]-1,3,4-oxadiazol-2-yl]-3-bicyclo[1.1.1]pentanyl]acetamide] | < 1000
N#C[C@H]1C[C@@H](n2cc(C34CC(NC(=O)COc5ccc(Cl)c(F)c5)(C3)C4)nn2)C1 (relative stereo) [Example 35, 2-(4-chloro-3-fluorophenoxy)-N-(3-(1-((cis)-3-cyanocyclobutyl)-1H-1,2,3-triazol-4-yl)bicyclo[1.1.1]pentan-1-yl)acetamide] | < 1000
N#C[C@H]1C[C@@H](n2ncc(C34CC(NC(=O)COc5ccc(Cl)c(F)c5)(C3)C4)n2)C1 (relative stereo) [Example 36, 2-(4-chloro-3-fluorophenoxy)-N-(3-(2-((cis)-3-cyanocyclobutyl)-2H-1,2,3-triazol-4-yl)bicyclo[1.1.1]pentan-1-yl)acetamide] | < 1000
O=C(COc1ccc(Cl)c(F)c1)NC12CC(c3cnn(C4CCC4)n3)(C1)C2 (single isomer, unassigned) [Example 19, 2-(4-Chloro-3-fluoro-phenoxy)-N-[1-(2-cyclobutyltriazol-4-yl)-3-bicyclo[1.1.1]pentanyl]acetamide] | < 1000
O=C(COc1ccc(Cl)c(F)c1)NC12CC(c3cn(C4CCC4)nn3)(C1)C2 (single isomer, unassigned) [Example 20, 2-(4-chloro-3-fluoro-phenoxy)-N-[1-(1-cyclobutyltriazol-4-yl)-3-bicyclo[1.1.1]pentanyl]acetamide] | < 1000
O=C(COc1ccc(Cl)c(F)c1)NC12CC(c3nnc(C4C[C@H]4COC(F)(F)F)o3)(C1)C2 (single isomer, unassigned) [Example 82, 2-(4-chloro-3-fluoro-phenoxy)-N-[3-[5-[2-trans-(trifluoromethoxymethyl)cyclopropyl]-1,3,4-oxadiazol-2-yl]-1-bicyclo[1.1.1]pentanyl]acetamide] | < 1000
O=C(COc1ccc(Cl)c(F)c1)NC12CC(c3nnc([C@H]4C[C@@H]4C(F)F)o3)(C1)C2 (single isomer, unassigned) [Example 84, 2-(4-chloro-3-fluoro-phenoxy)-N-[3-[5-[2-trans-(difluoromethyl)cyclopropyl]-1,3,4-oxadiazol-2-yl]-1-bicyclo[1.1.1]pentanyl]acetamide] | < 1000
O=C(COc1ccc(Cl)c(F)c1)NC12CC(c3nnc([C@H]4C[C@H]4C(F)F)o3)(C1)C2 (single isomer, unassigned) [Example 85, 2-(4-chloro-3-fluoro-phenoxy)-N-[3-[5-[2-cis-(difluoromethyl)cyclopropyl]-1,3,4-oxadiazol-2-yl]-1-bicyclo[1.1.1]pentanyl]acetamide] | 1000 to 10000
O=C(COc1ccc(Cl)cc1)NC12CC(c3nnc(C4CCOC4)o3)(C1)C2 (stereo not shown) [Example 1, 2-(4-Chlorophenoxy)-N-[3-(5-tetrahydrofuran-3-yl-1,3,4-oxadiazol-2-yl)-1-bicyclo[1.1.1]pentanyl]acetamide] | 1000 to 10000
O=C(COc1ccc(Cl)cc1)NC12CC(c3nnc(C4CCCO4)o3)(C1)C2 (stereo not shown) [Example 2, 2-(4-Chlorophenoxy)-N-[3-(5-tetrahydrofuran-2-yl-1,3,4-oxadiazol-2-yl)-1-bicyclo[1.1.1]pentanyl]acetamide] | 1000 to 10000
O=C(COc1ccc(Cl)cc1)NC12CC(c3nnc([C@H]4C[C@@H](OC(F)(F)F)C4)o3)(C1)C2 [Example 3, 2-(4-chlorophenoxy)-N-[3-[5-[cis-3-(trifluoromethoxy)cyclobutyl]-1,3,4-oxadiazol-2-yl]-1-bicyclo[1.1.1]pentanyl]acetamide] | < 1000
O=C(COc1ccc(Cl)cc1)NC12CC(c3nnc(CC(F)(F)F)o3)(C1)C2 [Example 4, 2-(4-chlorophenoxy)-N-[3-[5-(2,2,2-trifluoroethyl)-1,3,4-oxadiazol-2-yl]-1-bicyclo[1.1.1]pentanyl]acetamide] | 1000 to 10000
O=C(COc1ccc(Cl)cc1)NC12CC(c3nnc(COC4CCC4)o3)(C1)C2 [Example 5, 2-(4-Chlorophenoxy)-N-[1-[5-(cyclobutoxymethyl)-1,3,4-oxadiazol-2-yl]-3-bicyclo[1.1.1]pentanyl]acetamide] | < 1000
O=C(COc1ccc(Cl)c(F)c1)NC12CC(c3nnc([C@H]4C[C@@H](OC(F)(F)F)C4)o3)(C1)C2 [Example 6, 2-(4-chloro-3-fluoro-phenoxy)-N-[1-[5-[cis-3-(trifluoromethoxy)cyclobutyl]-1,3,4-oxadiazol-2-yl]-3-bicyclo[1.1.1]pentanyl]acetamide] | < 1000
CC(CC(F)F)c1nnc(C23CC(NC(=O)COc4ccc(Cl)c(F)c4)(C2)C3)o1 (stereo not shown) [Example 7, 2-(4-chloro-3-fluoro-phenoxy)-N-[1-[5-(3,3-difluoro-1-methyl-propyl)-1,3,4-oxadiazol-2-yl]-3-bicyclo[1.1.1]pentanyl]acetamide] | < 1000
CC(c1nnc(C23CC(NC(=O)COc4ccc(Cl)c(F)c4)(C2)C3)o1)C1CC1 (stereo not shown) [Example 8, 2-(4-chloro-3-fluoro-phenoxy)-N-[1-[5-(1-cyclopropylethyl)-1,3,4-oxadiazol-2-yl]-3-bicyclo[1.1.1]pentanyl]acetamide] | < 1000
O=C(COc1ccc(Cl)c(F)c1)NC12CC(c3nnc(C4(F)CC4)o3)(C1)C2 [Example 10, 2-(4-chloro-3-fluoro-phenoxy)-N-[1-[5-(1-fluorocyclopropyl)-1,3,4-oxadiazol-2-yl]-3-bicyclo[1.1.1]pentanyl]acetamide] | < 1000

Same assay, conditions: read-out: Activity (IC50); H4 ATF4-NLuc (clone 17) cells; compound 30 minutes, then 50 um sodium arsenite for 6 hours; luminescence readout

IC50 [nM] | Structure (SMILES)
< 1000 | C[C@H]1C[C@@H]1c1nnc(C23CC(NC(=O)COc4ccc(Cl)c(F)c4)(C2)C3)o1 (single isomer, unassigned) [Example 113, 2-(4-chloro-3-fluoro-phenoxy)-N-[1-[5-[2-methylcyclopropyl]-1,3,4-oxadiazol-2-yl]-3-bicyclo[1.1.1]pentanyl]acetamide]
< 1000 | O=C(NC12CC(c3nnc([C@H]4C[C@@H](OC(F)(F)F)C4)o3)(C1)C2)C1CCc2cc(Cl)ccc2O1 (single isomer, unassigned) [Example 158, 6-chloro-N-(3-(5-(3-cis-(trifluoromethoxy)cyclobutyl)-1,3,4-oxadiazol-2-yl)bicyclo[1.1.1]pentan-1-yl)chroman-2-carboxamide]
< 1000 | O=C(NC12CC(c3nnc([C@H]4C[C@@H](OC(F)(F)F)C4)o3)(C1)C2)C1CCc2cc(F)ccc2O1 (single isomer, unassigned) [Example 160]
< 1000 | O=C(COc1ccc(Cl)c(F)c1)NC12CC(N3C[C@@H](C4CC(OC(F)(F)F)C4)OC3=O)(C1)C2 (single isomer, unassigned) [Example 209]

More lines, now with the values behind:

Structure (SMILES) | IC50 [nM]
O=C(COC1CC(OC(F)(F)F)C1)NC12CC(c3nnc(C4C[C@H]4COC(F)(F)F)o3)(C1)C2 (single isomer, unassigned) [Example 90, 2-[cis-3-(trifluoromethoxy)cyclobutoxy]-N-[3-[5-[cis-2-(trifluoromethoxymethyl)cyclopropyl]-1,3,4-oxadiazol-2-yl]-1-bicyclo[1.1.1]pentanyl]acetamide] | > 10000
O=C(COC1CC(OC(F)(F)F)C1)NC12CC(c3nnc(C4C[C@H]4COC(F)(F)F)o3)(C1)C2 (single isomer, unassigned) [Example 91, 2-[3-cis-(trifluoromethoxy)cyclobutoxy]-N-[3-[5-[2-trans-(trifluoromethoxymethyl)cyclopropyl]-1,3,4-oxadiazol-2-yl]-1-bicyclo[1.1.1]pentanyl]acetamide] | < 1000
